This is an account of results in ChEMBL document CHEMBL1201862, “PubChem BioAssay data set” (2004).

Molecules are shown by their SMILES.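 In this assay, cells in 96-well plates receive the compound at five concentrations for 48 hours. Endpoints are linearly interpolated between the surrounding concentrations. GI50 is the concentration that inhibits growth by half.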 Activity calls are given as the source filed them. Cut-off read from the data, not from the text of the source: active = GI50 up to about 1.1 µM and inactive = higher. Where only a bound is given, the exact number is not on record here.

Test systems include ACHN; MDA-MB-435; CAKI-1; DU-145; HCT-116; EKVX; A549; COLO 205; UO-31; SF-268; UACC-257; SNB-19; TK-10; U-251; KM12; SK-MEL-2; SN12C; HOP-62; SF-295; NCI-H23.
Common to all, as to test: inhibition of tumour cell growth, NCI panel, 48 h

In the case of `CCCc1cn2c(/C=N/N=C(N)N)c(-c3c(OC)ccc(OC)c3[N+](=O)[O-])nc2s1`, the GI50 was 18 µM (inactive) in the experiment on ACHN; 5.42 µM (inactive) in the experiment on MDA-MB-435; 5.57 µM (inactive) in the experiment on CAKI-1; 16 µM (inactive) in the experiment on DU-145; 6.18 µM (inactive) with HCT-116; 18 µM (inactive) in the experiment on EKVX. The GI50 with A549 was 19.4 µM (inactive); in the experiment on COLO 205 it was 2.16 µM (inactive); in the experiment with UO-31 it was 20.4 µM (inactive); with SF-268 it was 11.4 µM (inactive); in the experiment with UACC-257 it was 7.08 µM (inactive); with SNB-19, 18.4 µM (inactive). Also, the GI50 in the experiment with TK-10 was 16.8 µM (inactive); in the experiment on U-251 it was 4.74 µM (inactive); with KM12, 3.16 µM (inactive); in the experiment with SK-MEL-2, 16.7 µM (inactive); in the experiment on SN12C it was 14.2 µM (inactive); in the experiment with HOP-62 it was 12.6 µM (inactive). Also, the GI50 in the experiment with SF-295 is 14.1 µM (inactive); in the experiment on NCI-H23, 10.9 µM (inactive).

As for `COc1ccc(/[N+]([O-])=C/c2ccc(OC(=S)S)c(OC)c2)cc1`, the GI50 with ACHN is 75 µM (inactive); in the experiment with MDA-MB-435 it was 9.46 µM (inactive); in the experiment with CAKI-1, 17 µM (inactive); in the experiment on DU-145, 41.6 µM (inactive); with HCT-116, 28.5 µM (inactive); in the experiment with EKVX, 31.4 µM (inactive). Besides, the GI50 was 40.6 µM (inactive) with A549; 44.9 µM (inactive) in the experiment with COLO 205; 44.6 µM (inactive) in the experiment on UO-31; 42.5 µM (inactive) in the experiment on SF-268; > 100 µM (inactive) with UACC-257; 43.6 µM (inactive) in the experiment on SNB-19. In addition, the GI50 with TK-10 is 85.1 µM (inactive); with U-251, 36.2 µM (inactive); with KM12 it was 8.39 µM (inactive); in the experiment on SK-MEL-2, 35.5 µM (inactive); in the experiment with SN12C it was 37.7 µM (inactive); in the experiment on HOP-62 it was 39.7 µM (inactive). The GI50 is 28.6 µM (inactive) in the experiment with SF-295 and 29.6 µM (inactive) in the experiment on NCI-H23.

On to `CCC1=[N+](CC)CCN1CC`, for which the GI50 with ACHN, in the experiment on MDA-MB-435, with CAKI-1, in the experiment with DU-145, in the experiment on HCT-116 and in the experiment on EKVX was > 100 µM (inactive) each time. Moreover, the GI50 in the experiment on A549, in the experiment with COLO 205, in the experiment with UO-31, in the experiment with SF-268, in the experiment with UACC-257 and in the experiment with SNB-19 was > 100 µM (inactive) throughout. Moreover, the GI50 in the experiment with TK-10, with U-251, in the experiment on KM12, in the experiment with SK-MEL-2, with SN12C and in the experiment on HOP-62 was > 100 µM (inactive) in each case. Besides, the GI50 in the experiment with SF-295 and in the experiment with NCI-H23 was > 100 µM (inactive) in each case.

Regarding `C[C@@H]1C[C@H](O)[C@]2(O)O[C@@H]3C[C@@]4(C=O)[C@@H](CC=C5[C@@H]4CC[C@]4(C)[C@@H](C6=CC(=O)OC6)CC[C@]54O)C[C@H]3O[C@@H]2O1`, the GI50 in the experiment with ACHN was < 0.01 µM (active); in the experiment on MDA-MB-435 it was 0.0332 µM (active); with CAKI-1, < 0.0125 µM (active); in the experiment with DU-145 it was < 0.0163 µM (active); with HCT-116 it was 0.0143 µM (active); with EKVX, < 0.01 µM (active). Besides, the GI50 in the experiment on A549 is < 0.0109 µM (active); with COLO 205 it was 0.0984 µM (active); in the experiment with UO-31 it was < 0.0247 µM (active); in the experiment with SF-268, 0.0103 µM (active); with UACC-257, 0.0702 µM (active); with SNB-19, 0.218 µM (active). The GI50 with TK-10 is < 0.01 µM (active); with U-251, < 0.0214 µM (active); with KM12, 0.0337 µM (active); in the experiment with SK-MEL-2, 0.098 µM (active); in the experiment on SN12C, < 0.01 µM (active); with HOP-62, < 0.0121 µM (active). Further, the GI50 in the experiment on SF-295 is < 0.0191 µM (active); with NCI-H23, 0.0118 µM (active).

Turning to `COC(=O)C1(Cc2cccc(C)c2)Cc2c(C)cccc2C1=O` (stereo not given), the GI50 in the experiment on ACHN is > 100 µM (inactive); in the experiment with MDA-MB-435, 14.1 µM (inactive); with CAKI-1 it was 64.9 µM (inactive); with DU-145 it was > 100 µM (inactive); in the experiment on HCT-116 it was 36.4 µM (inactive); in the experiment on EKVX, 29.1 µM (inactive). The GI50 is 38.6 µM (inactive) in the experiment with A549; 37.2 µM (inactive) in the experiment with COLO 205; 42.6 µM (inactive) in the experiment with UO-31; 58.5 µM (inactive) with SF-268; 82.8 µM (inactive) in the experiment with UACC-257; 98.9 µM (inactive) in the experiment with SNB-19. Moreover, the GI50 with TK-10 was 89.3 µM (inactive); in the experiment with U-251 it was 38.7 µM (inactive); with KM12, 28.1 µM (inactive); with SK-MEL-2 it was 32.7 µM (inactive); in the experiment on SN12C, 44.9 µM (inactive); with HOP-62 it was 59.6 µM (inactive). Further, the figures for the GI50 with SF-295 and with NCI-H23 were 38.2 µM (inactive) and 37.5 µM (inactive), respectively.

`CC(C)CC1N=C(OCc2ccccc2)OC1=O` (stereo not given): the GI50 in the experiment with ACHN, in the experiment on MDA-MB-435, with CAKI-1, in the experiment with DU-145, in the experiment with HCT-116 and in the experiment with EKVX was > 100 µM (inactive) in each case. Also, the GI50 in the experiment on A549 is > 100 µM (inactive); with COLO 205, > 10 µM (inactive); in the experiment on UO-31 it was > 100 µM (inactive); with SF-268, 2.79 µM (inactive); in the experiment on UACC-257, > 100 µM (inactive); with SNB-19, > 100 µM (inactive). In addition, the GI50 with TK-10, in the experiment on U-251, with KM12, in the experiment with SK-MEL-2, with SN12C and in the experiment on HOP-62 was > 100 µM (inactive) each time. Besides, the GI50 in the experiment on SF-295 and in the experiment with NCI-H23 was > 100 µM (inactive) in each case.

Consider `CCOC(=O)C(Cc1c2ccccc2cc2ccccc12)(NC(C)=O)C(=O)OCC`, for which the GI50 was > 63.1 µM (inactive) in the experiment with ACHN; > 72.4 µM (inactive) with MDA-MB-435; 20 µM (inactive) with CAKI-1; > 92.5 µM (inactive) in the experiment with DU-145; 48.9 µM (inactive) in the experiment on HCT-116; > 100 µM (inactive) in the experiment on EKVX. Moreover, the GI50 with A549 is > 72.8 µM (inactive); with COLO 205, > 53.2 µM (inactive); in the experiment with UO-31, > 85.9 µM (inactive); with SF-268 it was 36.9 µM (inactive); in the experiment on UACC-257, > 100 µM (inactive); in the experiment with SNB-19 it was > 78.5 µM (inactive). In addition, the GI50 in the experiment on TK-10 is > 100 µM (inactive); with U-251 it was > 80.5 µM (inactive); in the experiment with KM12, 97.7 µM (inactive); in the experiment on SK-MEL-2, > 100 µM (inactive); in the experiment on SN12C, > 100 µM (inactive); in the experiment with HOP-62 it was > 56 µM (inactive). The GI50 in the experiment with SF-295 was > 65.9 µM (inactive); with NCI-H23 it was > 100 µM (inactive).

For the molecule `C=C[C@@]1(C)CC2(C=C(CO)C(O)O2)Oc2c1c(=O)oc1cccc(C)c21` (stereo not given in full), the GI50 was 7.78 µM (inactive) in the experiment with ACHN; 3.57 µM (inactive) in the experiment with MDA-MB-435; 4.61 µM (inactive) with CAKI-1; 13.9 µM (inactive) with DU-145; 1.74 µM (inactive) in the experiment with HCT-116; 17.1 µM (inactive) with EKVX. For the same molecule, the GI50 with A549 was 31 µM (inactive); with COLO 205, 9.08 µM (inactive); in the experiment with UO-31 it was 5.31 µM (inactive); in the experiment on SF-268 it was 3.25 µM (inactive); in the experiment on UACC-257 it was 14.7 µM (inactive); in the experiment with SNB-19, 16.7 µM (inactive). For the same molecule, the GI50 in the experiment on TK-10 is 17.6 µM (inactive); in the experiment on U-251, 10.9 µM (inactive); with KM12, 18.3 µM (inactive); in the experiment on SK-MEL-2, 4.1 µM (inactive); in the experiment with SN12C, 9.86 µM (inactive); in the experiment with HOP-62 it was 17.5 µM (inactive). In addition, the figures for the GI50 with SF-295 and in the experiment on NCI-H23 were 27.7 µM (inactive) and 7.45 µM (inactive), respectively.

As for `C=C1C(=O)OC2C1C(=O)C/C(C)=C/CCC1(C)OC21` (stereo not given), the GI50 in the experiment on ACHN was 10.5 µM (inactive); with MDA-MB-435, 15.4 µM (inactive); with CAKI-1, 14.7 µM (inactive); with DU-145 it was 17.4 µM (inactive); in the experiment with HCT-116 it was 14.8 µM (inactive); with EKVX it was 25.2 µM (inactive). The GI50 is 19.4 µM (inactive) in the experiment on A549; 5.45 µM (inactive) with COLO 205; 15.2 µM (inactive) with UO-31; 19.6 µM (inactive) in the experiment with SF-268; 20.1 µM (inactive) in the experiment with UACC-257; 38.4 µM (inactive) with SNB-19. In addition, the GI50 in the experiment with TK-10 was 16.1 µM (inactive); in the experiment with U-251 it was 19.5 µM (inactive); in the experiment on KM12 it was 23.6 µM (inactive); with SK-MEL-2, 18.5 µM (inactive); in the experiment on SN12C, 22.1 µM (inactive); in the experiment on HOP-62 it was 14.2 µM (inactive). The GI50 is 52.7 µM (inactive) in the experiment with SF-295 and 19.5 µM (inactive) in the experiment on NCI-H23.

Take `COC(OC)[C@@H]1OC[C@H](n2ccc(=O)[nH]c2=O)[C@H]1O`: the GI50 with ACHN, with MDA-MB-435, in the experiment on CAKI-1, in the experiment on DU-145, in the experiment with HCT-116 and in the experiment on EKVX was > 100 µM (inactive) throughout. The GI50 in the experiment with A549 was > 100 µM (inactive); with COLO 205, > 100 µM (inactive); in the experiment with UO-31 it was > 100 µM (inactive); with SF-268, > 100 µM (inactive); in the experiment with UACC-257, > 100 µM (inactive); with SNB-19, 67.3 µM (inactive). Moreover, the GI50 in the experiment with TK-10, with U-251, in the experiment on KM12, in the experiment with SK-MEL-2, in the experiment on SN12C and with HOP-62 was > 100 µM (inactive) in each case. Further, the GI50 in the experiment with SF-295 and with NCI-H23 was > 100 µM (inactive) in each case.
